Test results taken from ChEMBL document CHEMBL1201862, “PubChem BioAssay data set” (2004).
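48-hour exposure; five concentrations; linearly interpolated endpoints. GI50 = concentration required for 50% inhibition of growth.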 Activity calls are given as the source filed them. Rule as the data show it: active = GI50 up to about 1.1 µM and inactive = higher.

Key:
Experiment in all cases: NCI anticancer screen, dose series, 48 h
[1] = tested on: UACC-62
[2] = tested on: 786-0
[3] = tested on: SNB-78
[4] = tested on: A549
[5] = tested on: DMS-273
[6] = tested on: NCI-H226
[7] = tested on: U-251
[8] = tested on: SF-295
[9] = tested on: OVCAR-8
[10] = tested on: NCI-H23
[11] = tested on: HCT-116
[12] = tested on: SNB-19
[13] = tested on: IGROV-1
[14] = tested on: CCRF-CEM
[15] = tested on: M19-MEL
[16] = tested on: LXFL 529
[17] = tested on: DMS-114
[18] = tested on: HOP-92
[19] = tested on: EKVX
[20] = tested on: HCT-15
[21] = tested on: MOLT-4
[22] = tested on: SK-MEL-2
[23] = tested on: HOP-62
[24] = tested on: UACC-257
[25] = tested on: DLD-1
[26] = tested on: K562
[27] = tested on: LOX IMVI
[28] = tested on: Malme-3M
[29] = tested on: COLO 205
[30] = tested on: SK-MEL-28
[31] = tested on: TK-10
[32] = tested on: HT-29
[33] = tested on: OVCAR-5
[34] = tested on: OVCAR-3
[35] = tested on: HL-60
[36] = tested on: RXF 393
[37] = tested on: A498
[38] = tested on: HOP-18
[39] = tested on: RPMI-8226
[40] = tested on: M14
[41] = tested on: UO-31
[42] = tested on: OVCAR-4
[43] = tested on: SF-539
[44] = tested on: SW-620
[45] = tested on: SNB-75
[46] = tested on: SF-268
[47] = tested on: ACHN
[48] = tested on: NCI-H522
[49] = tested on: SK-OV-3
[50] = tested on: SN12C
[51] = tested on: KM-20L2
[52] = tested on: NCI-H460
[53] = tested on: HCC 2998
[54] = tested on: SK-MEL-5
[55] = tested on: KM12

Measured: GI50

CCC1(CC)C(=O)NC(=O)NC1=S
> 100 µM: [20]
inactive: [1] > 100 µM | [2] > 100 µM | [3] > 100 µM | [4] > 100 µM | [5] > 100 µM | [6] > 100 µM | [7] > 100 µM | [8] > 100 µM | [9] > 100 µM | [10] > 100 µM | [11] > 100 µM | [12] > 100 µM | [13] > 100 µM | [14] > 100 µM | [15] > 100 µM | [16] > 100 µM | [17] > 100 µM | [18] > 100 µM | [19] > 100 µM | [21] > 100 µM | [22] > 100 µM | [23] > 100 µM | [24] > 100 µM | [25] > 100 µM | [26] > 100 µM | [27] > 100 µM | [28] > 100 µM | [29] > 100 µM | [30] > 100 µM | [31] > 100 µM | [32] > 100 µM | [33] > 100 µM | [34] > 100 µM | [35] > 100 µM | [36] > 100 µM | [37] > 100 µM | [38] > 100 µM | [39] > 100 µM | [40] > 100 µM | [41] > 100 µM | [42] > 100 µM | [43] > 100 µM | [44] > 100 µM | [45] > 100 µM | [46] > 100 µM | [47] > 100 µM | [48] > 100 µM | [49] > 100 µM | [50] > 100 µM | [51] > 100 µM | [52] > 100 µM

O=C(c1ccccc1)c1cn(/N=C\c2ccccc2)c(=O)nc1-c1ccccc1
> 100 µM: [20]
inactive: [1] > 100 µM | [2] > 100 µM | [3] > 100 µM | [4] > 100 µM | [6] > 100 µM | [7] > 100 µM | [8] > 100 µM | [53] > 100 µM | [9] > 100 µM | [10] > 100 µM | [11] > 100 µM | [12] > 100 µM | [14] 70 µM | [15] > 100 µM | [16] > 100 µM | [17] > 100 µM | [18] 92.9 µM | [19] > 100 µM | [21] > 100 µM | [54] > 100 µM | [22] > 100 µM | [23] > 100 µM | [24] > 100 µM | [25] > 100 µM | [26] > 100 µM | [27] > 100 µM | [28] > 100 µM | [29] > 100 µM | [30] > 100 µM | [31] > 100 µM | [32] > 100 µM | [33] > 100 µM | [34] > 100 µM | [36] > 100 µM | [37] > 100 µM | [38] > 100 µM | [40] > 100 µM | [41] > 100 µM | [42] > 100 µM | [43] > 100 µM | [44] > 100 µM | [55] > 100 µM | [45] > 100 µM | [46] > 100 µM | [47] > 100 µM | [48] > 100 µM | [49] > 100 µM | [50] > 100 µM | [51] > 100 µM | [52] > 100 µM
